Reference: US20160153998A1, “BIOMARKERS FOR PREDICTING THE SENSITIVITY OF CELLS TO IMMUNOMODULATORY COMPOUNDS DURING TREATMENT OF NON-HODGKIN'S LYMPHOMA” (Celgene Corporation, priority 2007, published 2016)

Key:
Assay type in all cases: cell-based
Rec-1 cells [1] = test: Real-time PCR gene expression in Rec-1 cells; conditions: 1, 10 or 100 μM, 24 or 48 hours, alone or with dexamethasone 10 nM
Method: (§1) After the cell treatment, total RNA was purified. Real-time PCR was performed with 100 ng of total RNA, using an Applied Biosystems 7500 instrument (Applied Biosystems, Foster City, Calif.) using TaqMan Sequence Detection chemistry which uses a fluorogenic probe (FAM) to enable the detection of a specific PCR product as it accumulates during PCR. Samples were prepared in triplicate in 50 μl reaction volumes. The 50 μl reactions consisted of 25 μl 2× TaqMan PCR master mix, 2.5 μl of 20× gene expression assay, 10 μl of RNA ([…]) and 12.5 μl water. Glyceraldehyde-3-phosphate dehydrogenase (GAPDH) was used as the endogenous control to ensure equal RNA amounts in each sample.
(§2) TaqMan® Gene Expression Assays were pre-formulated gene expression assays for rapid, reliable detection and quantification of human, mouse and rat mRNA transcripts. The PCR program used was: 50° C. for 2 minutes, 95° C. for 10 minutes, 40 cycles of 95° C. for 15 seconds, 60° C. for 1 minute. Data was analyzed using 7500 Real-Time PCR System Sequence Detection software v1.3 using the comparative CT relative quantification calculation method. The output was expressed as a fold-change of expression levels. The threshold level was selected to be automatically determined by the software and was set to be above the baseline but sufficiently low to be within the exponential growth region of an amplification curve. The cycle number at which the fluorescence signal associated with a particular amplicon accumulation crosses the threshold is referred to as the CT.
The effect of 1,3-dioxo-2-(2,6-dioxopiperidin-3-yl)-4-aminoisoindoline or 1-oxo-2-(2,6-dioxopiperidin-3-yl)-4-aminoisoindoline, either alone or in combination with Dexamethasone (10 nM) on the expression of several important genes involved in the regulation of NHL cell proliferation and survival was determined using Rec-1 cells (FIG. 1). The immunomodulatory compounds 1,3-dioxo-2-(2,6-dioxopiperidin-3-yl)-4-aminoisoindoline or 1-oxo-2-(2,6-dioxopiperidin-3-yl)-4-aminoisoindoline were added to the Rec-1 cells at a final concentration of 1, 10, or 100 μM. After 24 or 48 hours of incubation with 1,3-dioxo-2-(2,6-dioxopiperidin-3-yl)-4-aminoisoindoline or 1-oxo-2-(2,6-dioxopiperidin-3-yl)-4-aminoisoindoline, gene expression of VEGF, p21, p53, and cyclin D1 was measured using real-time PCR.

Namalwa cells [2] = test: Luminex assay for VEGF production, Namalwa; conditions: 3 days
Method: (§3) Cells were treated with the drug for 3 days in 96 well plates. Cell culture supernatants were then collected for measurement of VEGF using Luminex/xMAP® technology.
(§4) 1-oxo-2-(2,6-dioxopiperidin-3-yl)-4-aminoisoindoline inhibited the production of the pro-angiogenic growth factor VEGF from anti-proliferation sensitive NHL cells, such as Namalwa, Jeko-1 and Rec-1 cells.

Jeko-1 cells [3] = test: Luminex assay for VEGF production, Jeko-1; conditions: 3 days
Method: as §3, §4

Rec-1 cells [4] = test: Rec-1 cell growth in the presence of rhVEGF or anti-VEGF antibody; conditions: Rec-1 cells (FIG. 8)
Method: (§5) NHL cell proliferation was assessed by 3H-thymidine incorporation assay. Briefly, cells were cultured in 96 well cell culture plates in complete RPMI-1640 medium in the presence and absence of drugs. Following incubation at 37° C. for 3 days, 1 μCi 3H-thymidine was added to each well for the last 5 hours of incubation. The 3H incorporation of each well was then measured.

[5] = test system: NHL cell lines (Namalwa, Jeko-1, Rec-1, Granta-519, DB, JVM-2); test: NHL cell proliferation, 3H-thymidine incorporation
Method: as §5
(§6) To better understand how the effectiveness of immunomodulatory compound administration varies among different cancer cell types, the immunomodulatory compound 1-oxo-2-(2,6-dioxopiperidin-3-yl)-4-aminoisoindoline was tested in vitro for its anti-proliferative effect in several NHL cell lines after 1-3 days of treatment. The method utilized ^3H-thymidine incorporation, microbead array technology and real time PCR. The six tested cell lines were Namalwa, Jeko-1, Rec-1, Granta-519, DB, and JVM-2.

sensitive NHL cells = test: Luminex assay for VEGF production, sensitive NHL cells
Method: as §3, §4

Namalwa cells [6] = test: Real-time RT-PCR gene expression in Namalwa cells
Method: as §1, §2
The effect of the administration of 1-oxo-2-(2,6-dioxopiperidin-3-yl)-4-aminoisoindoline in Namalwa cells after 48 hours of drug treatment was measured.
The effect of administration of 1-oxo-2-(2,6-dioxopiperidin-3-yl)-4-aminoisoindoline at various time points from 0 to 48 hours in the fold change in expression of several genes was measured in Namalwa cells (FIG. 11).

DB cells = test: Luminex assay for VEGF production, DB; conditions: 3 days
Method: as §3, §4

DB cell line = test: NHL cell proliferation, 3H-thymidine incorporation, DB cells; conditions: DB (t(14;18)) cells
Method: as §5, §6

Granta-519 cells = test: Luminex assay for VEGF production, Granta-519; conditions: 3 days
Method: as §3, §4

Jeko-1 cells [7] = test: Real-time RT-PCR mRNA levels in Jeko-1 cells; conditions: 24 hours
Method: as §1, §2
Jeko-1 cells were treated with immunomodulatory compounds, with or without dexamethasone (10 nM) for 24 hours. Total RNA was then isolated from the treated cells, and the samples were subjected to real-time RT-PCR analysis to determine gene transcription at the mRNA level. […] 1,3-dioxo-2-(2,6-dioxopiperidin-3-yl)-4-aminoisoindoline (at 10 μM) enhanced mRNA levels of these genes up to about 3-fold. 1-oxo-2-(2,6-dioxopiperidin-3-yl)-4-aminoisoindoline (1 μM) enhanced activin A mRNA level up to 2.6-fold, and SPARC was enhanced at 10 μM.

Namalwa cells [8] = test: Proliferation of Namalwa cells after SPARC siRNA knockdown; conditions: SPARC siRNA 200 nM, drug for 2 days
Method: as §5
Cells were transfected with SPARC or cyclophilin siGENME SMARTpool (Dharmacon, Lafayette, Colo.) at final concentration of 200 nM using DharmaFECT 2 transfection reagents following the manufacturer's protocol. After 24 hours of transfection, cells were then treated with the drug for 2 days.
SPARC siRNA was transfected to Namalwa cells to determine the effect of a SPARC knockdown on the antiproliferative effect of 1-oxo-2-(2,6-dioxopiperidin-3-yl)-4-aminoisoindoline in Namalwa cells. The anti-proliferative effect of 1-oxo-2-(2,6-dioxopiperidin-3-yl)-4-aminoisoindoline is weaker after SPARC knockdown compared to mock transfected control cells.

Rec-1 cells [9] = test: Luminex assay for VEGF production, Rec-1; conditions: 3 days
Method: as §3, §4

NHL cells = test: Real-time RT-PCR gene expression in NHL cell lines
Method: as §1, §2
The effect of the administration of 1-oxo-2-(2,6-dioxopiperidin-3-yl)-4-aminoisoindoline in various NHL cells was measured after 24 hours of incubation, using real-time RT-PCR (FIG. 9).

[10] = Namalwa cells, 10 μM, 2-48 hours

Nc1cccc2c1CN(C1CCC(=O)NC1=O)C2=O (centres unmarked) [1-oxo-2-(2,6-dioxopiperidin-3-yl)-4-aminoisoindoline]
VEGF mRNA level (Rec-1 cells [1]): decrease | p21 mRNA level (Rec-1 cells [1]): increase | production of VEGF (Namalwa cells [2]): inhibited | production of VEGF (Jeko-1 cells [3]): inhibited | anti-proliferative activity on addition of exogenous recombinant human VEGF (in excess) or neutralizing VEGF antibody (Rec-1 cells [4]): does not affect | anti-proliferative activity against NHL cells ([5]; 1-3 days of treatment): demonstrated anti-proliferative activity | order of sensitivity of NHL cell lines to the compound ([5]; 3 day incubation): Namalwa>Rec-1>Jeko-1>Granta-519>JVM-2>DB | concentrations for the effect on VEGF compared with anti-proliferative effects (sensitive NHL cells): well below levels required for anti-proliferative effects | production of the proangiogenic growth factor VEGF (sensitive NHL cells; FIG. 7): inhibits | change in expression of BlyS (Namalwa cells [6]; [10]): did not exhibit a significant change | change in expression of VEGF (Namalwa cells [6]; [10]): did not exhibit a significant change | change in expression of cyclin D1 (Namalwa cells [6]; [10]): did not exhibit a significant change | change in expression of p53/p73 (Namalwa cells [6]; [10]): did not exhibit a significant change | production of VEGF (DB cells): fails to inhibit | cell proliferation of DB cell line (DB cell line): increased rate of cell proliferation | production of VEGF (Granta-519 cells): fails to inhibit | enhancement of activin A mRNA level (Jeko-1 cells [7]; 1 μM): up to 2.6 fold | SPARC mRNA level (Jeko-1 cells [7]; 10 μM): enhanced | anti-proliferative effect after SPARC knockdown compared to mock transfected control cells (Namalwa cells [8]): weaker | production of VEGF (Rec-1 cells [9]): inhibited | VEGF mRNA expression (NHL cells; NHL cells): does not inhibit | p21 in sensitive and resistant (DB) cells (NHL cells; both sensitive and resistant (DB) cells): elevated p21 was observed | elevation of SPARC mRNA in resistant cells (NHL cells; resistant cells): not seen | SPARC expression (NHL cells; sensitive NHL cells, 24 hours): increased | p21cip/kip expression (NHL cells; sensitive NHL cells, 24 hours): increased | SPARC mRNA expression (NHL cells; several NHL cell lines): increased expression of SPARC mRNA | p21cip/kip expression (NHL cells; several cell lines): increased

C[C@@H]1C[C@H]2[C@@H]3CCC4=CC(=O)C=C[C@]4(C)[C@@]3(F)[C@@H](O)C[C@]2(C)[C@@]1(O)C(=O)CO [dexamethasone]
SPARC expression (Namalwa cells [6]; dexamethasone alone, NHL cells such as Namalwa): no effect

Nc1cccc2c1C(=O)N(C1CCC(=O)NC1=O)C2=O (centres unmarked) [1,3-dioxo-2-(2,6-dioxopiperidin-3-yl)-4-aminoisoindoline]
VEGF mRNA level (Rec-1 cells [1]): decrease | p21 mRNA level (Rec-1 cells [1]): increase | enhancement of mRNA levels of p21, activin A and SPARC (Jeko-1 cells [7]; 10 μM): about 3 fold | SPARC mRNA level (Jeko-1 cells [7]; 1-10 μM): up-regulate | activin A mRNA level (Jeko-1 cells [7]; 1-10 μM): up-regulate | p21 mRNA level (Jeko-1 cells [7]; 1-10 μM): up-regulate | effect on p21 (Jeko-1 cells [7]): clear enhancing effect
